Experimental data from patent US10111874B2, “Combination therapies for treatment of cancer” (Araxes Pharma LLC, priority 2014, dated 2018).

Target: T1, KRAS G12C 1-169, his-tagged protein, GDP-loaded (Homo sapiens, UniProt P01116, G12C)
T1 construct: KRAS G12C 1-169, his-tagged protein, GDP-loaded
Assay: Biochemical assay: covalent binding to KRAS G12C analyzed by mass spectrometry; further: test concentration or dose not given here

[1] = compounds 247-342, measured at 30 min
[2] = compounds 1-47, measured at 24 h

T1 sequence (P01116 1-169 isoform P01116-2 G12C): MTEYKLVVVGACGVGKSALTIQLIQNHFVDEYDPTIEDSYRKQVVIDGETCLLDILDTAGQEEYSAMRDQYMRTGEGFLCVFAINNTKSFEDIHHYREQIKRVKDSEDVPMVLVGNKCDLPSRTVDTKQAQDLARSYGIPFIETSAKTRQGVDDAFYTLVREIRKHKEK

Compound | Binding % [1] | other results
C=CC(=O)N1CCN(c2ncnc3c(F)c(-c4ccccc4C(C)(C)O)c(Cl)cc23)CC1 [Compound I-278, 1-(4-(6-chloro-8-fluoro-7-(2-(2-hydroxypropan-2-yl)phenyl)quinazolin-4-yl)piperazin-1-yl)prop-2-en-1-one] | ++ (++indicates binding activity greater than 25% and up to 50%) | 
C=CC(=O)N1CCN(c2cnnc3cc(-c4c(O)cccc4F)c(C(F)(F)F)cc23)CC1 [Compound I-279, 1-(4-(7-(2-fluoro-6-hydroxyphenyl)-6-(trifluoromethyl)cinnolin-4-yl)piperazin-1-yl)prop-2-en-1-one] | +++ (+++indicates binding activity greater than 50% and up to 75%) | 
C=CC(=O)N1CCN(c2ncnc3c(F)c(-c4c(O)cc(F)cc4F)c(Cl)cc23)CC1 [Compound I-280, 1-(4-(6-chloro-7-(2,4-difluoro-6-hydroxyphenyl)-8-fluoroquinazolin-4-yl)piperazin-1-yl)prop-2-en-1-one] | +++ (+++indicates binding activity greater than 50% and up to 75%) | 
C=CC(=O)N1CCN(c2ncnc3c(F)c(-c4cc(-c5c[nH]cn5)ccc4F)c(Cl)cc23)CC1 [Compound I-281, 1-(4-(6-chloro-8-fluoro-7-(2-fluoro-5-(1H-imidazol-4-yl)phenyl)quinazolin-4-yl)piperazin-1-yl)prop-2-en-1-one] | ++ (++indicates binding activity greater than 25% and up to 50%) | 
CC(C)/C=C(\C#N)C(=O)N1CCN(c2ncnc3c(F)c(-c4c(O)cccc4F)c(Cl)cc23)CC1 [Compound I-282, (E)-2-(4-(6-chloro-8-fluoro-7-(2-fluoro-6-hydroxyphenyl)quinazolin-4-yl)piperazine-1-carbonyl)-4-methylpent-2-enenitrile] | +++ (+++indicates binding activity greater than 50% and up to 75%) | 
N#C/C(=C\c1cncs1)C(=O)N1CCN(c2ncnc3c(F)c(-c4c(O)cccc4F)c(Cl)cc23)CC1 [Compound I-283, (E)-2-(4-(6-chloro-8-fluoro-7-(2-fluoro-6-hydroxyphenyl)quinazolin-4-yl)piperazine-1-carbonyl)-3-(thiazol-5-yl)acrylonitrile] | ++ (++indicates binding activity greater than 25% and up to 50%) | 
N#C/C(=C\c1ccccn1)C(=O)N1CCN(c2ncnc3c(F)c(-c4c(O)cccc4F)c(Cl)cc23)CC1 [Compound I-284, (E)-2-(4-(6-chloro-8-fluoro-7-(2-fluoro-6-hydroxyphenyl)quinazolin-4-yl)piperazine-1-carbonyl)-3-(pyridin-2-yl)acrylonitrile] | ++++ (++++indicates binding activity greater than 75%) | 
C=CC(=O)N1CCN(c2c(C#N)cnc3c(F)c(-c4ccccc4C(F)(F)F)c(Cl)cc23)CC1 [Compound I-285, 4-(4-acryloylpiperazin-1-yl)-6-chloro-8-fluoro-7-(2-(trifluoromethyl)phenyl) quinoline-3-carbonitrile] | +++ (+++indicates binding activity greater than 50% and up to 75%) | 
C=CC(=O)N1CCN(c2ncnc3c(Cl)c(-c4c(OC)ccc5ccccc45)c(Cl)cc23)CC1 [Compound I-286, 1-(4-(6,8-dichloro-7-(2-methoxynaphthalen-1-yl)quinazolin-4-yl)piperazin-1-yl)prop-2-en-1-one] | + (+indicates binding activity from 5% to 25%) | 
C=CC(=O)N1CCN(c2ncnc3c(F)c(-c4c(C)cccc4OC)c(Cl)cc23)CC1 [Compound I-287, 1-(4-(6-chloro-8-fluoro-7-(2-methoxy-6-methylphenyl)quinazolin-4-yl)piperazin-1-yl)prop-2-en-1-one] | ++ (++indicates binding activity greater than 25% and up to 50%) | 
C=CC(=O)N1CCN(c2ncnc3c(F)c(-c4c[nH]c5ccccc45)c(Cl)cc23)CC1 [Compound I-288, 1-(4-(6-chloro-8-fluoro-7-(1H-indol-3-yl)quinazolin-4-yl)piperazin-1-yl)prop-2-en-1-one] | ++ (++indicates binding activity greater than 25% and up to 50%) | 
C=CC(=O)N1CCN(c2ncnc3c(F)c(-c4c(O)cccc4Cl)c(Cl)cc23)CC1 [Compound I-289, 1-(4-(6-chloro-7-(2-chloro-6-hydroxyphenyl)-8-fluoroquinazolin-4-yl)piperazin-1-yl)prop-2-en-1-one] | +++ (+++indicates binding activity greater than 50% and up to 75%) | 
C=CC(=O)N1CCN(c2ncnc3c(F)c(-c4c(C)cccc4Cl)c(Cl)cc23)CC1 [Compound I-290, 1-(4-(6-chloro-7-(2-chloro-6-methylphenyl)-8-fluoroquinazolin-4-yl)piperazin-1-yl)prop-2-en-1-one] | +++ (+++indicates binding activity greater than 50% and up to 75%) | 
C=CC(=O)N1CCN(c2c(C#N)cnc3c(F)c(-c4cc(O)cc5ccccc45)c(Cl)cc23)CC1 [Compound I-291, 4-(4-acryloylpiperazin-1-yl)-6-chloro-8-fluoro-7-(3-hydroxynaphthalen-1-yl)quinoline-3-carbonitrile] | ++++ (++++indicates binding activity greater than 75%) | 
C=CC(=O)N1CCN(c2ncnc3c(F)c(-c4ccc(F)cc4F)c(C)cc23)CC1 [Compound I-292, 1-(4-(7-(2,4-difluorophenyl)-8-fluoro-6-methylquinazolin-4-yl)piperazin-1-yl)prop-2-en-1-one] | + (+indicates binding activity from 5% to 25%) | 
C=CC(=O)N1CCN(c2c(C#N)cnc3c(F)c(-c4c(C)ccc5[nH]ncc45)c(Cl)cc23)CC1 [Compound I-293, 4-(4-acryloylpiperazin-1-yl)-6-chloro-8-fluoro-7-(5-methyl-1H-indazol-4-yl)quinoline-3-carbonitrile] | ++++ (++++indicates binding activity greater than 75%) | 

Compound | Binding % [1] | other results
C=CC(=O)N1CCN(c2ncnc3c(F)c(-c4c(C)ccc5[nH]ncc45)c(Cl)cc23)CC1CC#N (stereo not shown) [Compound I-294] | ++++ (++++indicates binding activity greater than 75%) | 
Cc1ccc2[nH]ncc2c1-c1c(Cl)cc2c(N3CCN(C(=O)/C=C/CN(C)C)CC3)ncnc2c1F [Compound I-295, (E)-1-(4-(6-chloro-8-fluoro-7-(5-methyl-1H-indazol-4-yl)quinazolin-4-yl)piperazin-1-yl)-4-(dimethylamino)but-2-en-1-one] | + (+indicates binding activity from 5% to 25%) | 
C=CC(=O)N1CC(N2CCN(C(=O)CNc3cc(Cl)c(Cl)cc3O)CC2)C1 [Example 38, 1-(3-(4-(2-(4,5-dichloro-2-hydroxyphenylamino)acetyl)piperazin-1-yl)azetidin-1-yl)prop-2-en-1-one] |  | Binding % [2]: ++ (++indicates binding activity greater than 25% and up to 50%)
C=CC(=O)NC1CN(C2CN(C(=O)CNc3cc(Cl)c(Cl)cc3O)C2)C1 [Example 39, N-(1′-(2-(4,5-dichloro-2-hydroxyphenylamino)acetyl)-1,3′-biazetidin-3-yl)acrylamide] |  | Binding % [2]: + (+indicates binding activity from 5% to 25%)
C=CC(=O)N1CCC2(C1)CN(C(=O)CNc1cc(Cl)c(Cl)cc1O)C2 [Example 40, 1-(2-(2-(4,5-dichloro-2-hydroxyphenylamino)acetyl)-2,6-diazaspiro[3.4]octan-6-yl)prop-2-en-1-one] |  | Binding % [2]: +++ (+++indicates binding activity greater than 50% and up to 75%)
C=CC(=O)N1CC(N2CCN(C(=O)OC(C)(C)C)CC2)C1 [Example 50, tert-butyl 4-(1-acryloylazetidin-3-yl)piperazine-1-carboxylate] |  | Binding % (compounds 48-246, measured at 2 h): + (+indicates binding activity from 5% to 25%)
C=CC(=O)N1CC(N2CCN(C(=O)CNc3cc(Cl)c(Cl)cc3O)CC2)C1 [II-1, 1-(3-(4-(2-(4,5-dichloro-2-hydroxyphenyl-amino)acetyl)-piperazin-1-yl)azetidin-1-yl)prop-2-en-1-one] |  | Binding % (determined at 24 hrs): ++++ (++++indicates binding activity greater than 50%)
C=CC(=O)N1CCC(N2CCN(C(=O)CNc3cc(Cl)c(Cl)cc3O)CC2)C1 (stereo not shown) [II-2, 1-(3-(4-(2-(4,5-dichloro-2-hydroxyphenyl-amino)acetyl)piperazin-1-yl)pyrrolidin-1-yl)prop-2-en-1-one] |  | Binding % (determined at 24 hrs): +++ (+++indicates binding activity greater than 25% and up to 50%)
C=CC(=O)NC1CN(C2CN(C(=O)CNc3cc(Cl)c(Cl)cc3O)C2)C1 [II-3, N-(1′-(2-(4,5-dichloro-2-hydroxyphenyl-amino)acetyl)-1,3′-biazetidin-3-yl)acrylamide] |  | Binding % (determined at 24 hrs): ++++ (++++indicates binding activity greater than 50%)
C=CC(=O)N1CC(N2CCN(C(=O)CNc3cc(OC)c(Cl)cc3Cl)CC2)C1 [II-5, 1-(3-(4-(2-(2,4-dichloro-5-methoxyphenyl-amino)acetyl)-piperazin-1-yl)azetidin-1-yl)prop-2-en-1-one] |  | Binding % (determined at 24 hrs): + (+indicates binding activity from 5% to 15%)
C=CC(=O)N1CC(N2CCN(C(=O)CCc3cc(Cl)c(Cl)cc3O)CC2)C1 [II-6, 1-(3-(4-(3-(4,5-dichloro-2-hydroxyphenyl)-propanoyl)piperazin-1-yl)azetidin-1-yl)prop-2-en-1-one] |  | Binding % (determined at 24 hrs): + (+indicates binding activity from 5% to 15%)
C=CC(=O)N1CCC(N2CCN(C(=O)CNc3cc(C)c(Cl)cc3O)CC2)C1 (stereo not shown) [II-7, 1-(3-(4-(2-(4-chloro-2-hydroxy-5-methylphenylamino)-acetyl)piperazin-1-yl)pyrrolidin-1-yl)prop-2-en-1-one] |  | Binding % (determined at 24 hrs): ++ (++indicates binding activity greater than 15% and up to 25%)
C=CC(=O)N1CC(N2CCN(C(=O)CNc3cc(C#N)c(Cl)cc3Cl)CC2)C1 [II-9, 5-(2-(4-(1-acryloylazetidin-3-yl)piperazin-1-yl)-2-oxoethylamino)-2,4-dichlorobenzonitrile] |  | Binding % (determined at 24 hrs): + (+indicates binding activity from 5% to 15%)
C=CC(=O)N1CC(N2CCN(C(=O)CNc3cc(Cl)c(Cl)cc3C(N)=O)CC2)C1 [II-10, 2-(2-(4-(1-acryloylazetidin-3-yl)piperazin-1-yl)-2-oxoethylamino)-4,5-dichlorobenzamide] |  | Binding % (determined at 24 hrs): + (+indicates binding activity from 5% to 15%)
C=CC(=O)N1CCC(N2CCN(C(=O)CNc3cc(I)c(Cl)cc3O)CC2)C1 (stereo not shown) [II-11] |  | Binding % (determined at 24 hrs): ++++ (++++indicates binding activity greater than 50%)
